Experiments:
[1] = target: T1, Full-length human PRMT1 isoform 1 (Homo sapiens, UniProt Q99873); assay: PRMT1 biochemical assay (3H-SAM Flashplate, peptide substrate)
T1 construct: GST-tagged PRMT1; made in house; host or cells: High Five insect cells (baculovirus, pFastBacI)
How it was run: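 Tritiated methyl transfer from 3H-SAM onto biotinylated peptide, captured on streptavidin Flashplates and counted. Baculovirus-expressed GST-PRMT1 and compound were preincubated 30 min at room temperature in Bicine buffer pH 7.6. Cold SAM at 300 uM final ended the reaction.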

[2] = target: T2, Full-length human PRMT8 (Homo sapiens, UniProt Q9NR22); assay: PRMT8 biochemical assay (3H-SAM Flashplate, peptide substrate)
T2 construct: Full-length human PRMT8 (NM_019854.4) isoform 1 transcript clone; made in house
T2 sequence (Q9NR22 whole entry, canonical isoform): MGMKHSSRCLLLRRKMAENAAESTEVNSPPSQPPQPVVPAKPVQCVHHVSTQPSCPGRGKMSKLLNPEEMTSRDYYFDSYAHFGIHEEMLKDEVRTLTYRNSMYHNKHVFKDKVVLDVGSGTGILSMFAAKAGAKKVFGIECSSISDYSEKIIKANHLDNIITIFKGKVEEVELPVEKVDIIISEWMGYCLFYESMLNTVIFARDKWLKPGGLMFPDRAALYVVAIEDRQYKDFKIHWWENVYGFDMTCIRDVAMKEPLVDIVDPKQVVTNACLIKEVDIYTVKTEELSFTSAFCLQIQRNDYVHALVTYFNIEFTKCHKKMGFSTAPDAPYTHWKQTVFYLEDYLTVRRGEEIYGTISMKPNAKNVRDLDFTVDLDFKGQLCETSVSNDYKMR
From the text: General Materials. S-adenosylmethionine (SAM), S-adenosylhomocysteine (SAH), bicine, Tween20, dimethylsulfoxide (DMSO), bovine skin gelatin (BSG), isopropyl-β-D-thiogalactopyranoside (IPTG), and Tris(2-carboxyethyl)phosphine hydrochloride solution (TCEP) were purchased from Sigma-Aldrich at the highest level of purity possible. ^3H-SAM was purchase from American Radiolabeled Chemicals with a specific activity of 80 Ci/mmol. 384-well streptavidin Flashplates were purchased from PerkinElmer.
Substrates. Peptide representative of human histone H4 residues 31-45 was synthesized with an N-terminal linker-affinity tag motif and a C-terminal amide cap by 21st Century Biochemicals.
Protein Expression. E. coli (BL21(DE3) Gold, Stratagene) made competent by the CaCl2 method were transformed with the PRMT8 construct and ampicillin selection. Protein over-expression was accomplished by growing the PRMT8 expressing E. coli clone and inducing expression with 0.3 mM IPTG at 16° C. The culture was grown for 12 hours, harvested by centrifugation, and stored at −80° C. for purification.
Protein Purification. […] GST-tagged PRMT8 was eluted with 50 mM Tris, 2 mM glutathione, pH 7.8. Pooled fractions were cleaved by thrombin (10 U) and dialysed in buffer A. GST was removed by reloading the cleaved protein sample onto glutathione sepharose column and PRMT8 was collected in the flow-through fractions. PRMT8 was purified further by ceramic hydroxyapatite chromatography. The column was washed with 50 mM phosphate buffer, 100 mM NaCl, 5% glycerol, 5 mM β-mercaptoethanol, pH 7.8 and PRMT8 was eluted by 100 mM phosphate in the same buffer. Protein was concentrated and buffer was exchanged to 50 mM Tris, 300 mM NaCl, 10% glycerol, 5 mM β-mercaptoethanol, pH 7.8 by ultrafiltration.
General Procedure for PRMT8 Enzyme Assays on Peptide Substrates. The assays were all performed in a buffer consisting of 20 mM Bicine (pH=7.6), 1 mM TCEP, 0.005% BSG, and 0.002% Tween 20, prepared on the day of use. […] DMSO (1 ul) was added to Columns 11, 12, 23, 24, rows A-H for the maximum signal control and 1 ul of SAH, a known product and inhibitor of PRMT8, was added to columns 11, 12, 23, 24, rows I-P for the minimum signal control. A cocktail (40 ul) containing the PRMT8 enzyme was added by Multidrop Combi (Thermo-Fisher). The compounds were allowed to incubate with PRMT8 for 30 min at room temperature, then a cocktail (10 ul) containing ^3H-SAM and peptide was added to initiate the reaction (final volume=51 ul). […] The assays were stopped by the addition of non-radiolabeled SAM (10 ul) to a final concentration of 400 uM, which dilutes the ^3H-SAM to a level where its incorporation into the peptide substrate is no longer detectable. 50 ul of the reaction in the 384-well polypropylene plate was then transferred to a 384-well Flashplate and the biotinylated peptides were allowed to bind to the streptavidin surface for at least 1 hour before being washed once with 0.1% Tween20 in a Biotek ELx405 plate washer. The plates were then read in a PerkinElmer TopCount plate reader to measure the quantity of ^3H-labeled peptide bound to the Flashplate surface, measured as disintegrations per minute (dpm) or alternatively, referred to as counts per minute (cpm).
Where dpm=disintegrations per minute, cmpd=signal in assay well, and min and max are the respective minimum and maximum signal controls.
Where top and bottom are the normally allowed to float, but may be fixed at 100 or 0 respectively in a 3-parameter fit. The Hill Coefficient normally allowed to float but may also be fixed at 1 in a 3-parameter fit. Y is the % inhibition and X is the compound concentration.

T1 sequence (Q99873 with tags, fused parts or gaps): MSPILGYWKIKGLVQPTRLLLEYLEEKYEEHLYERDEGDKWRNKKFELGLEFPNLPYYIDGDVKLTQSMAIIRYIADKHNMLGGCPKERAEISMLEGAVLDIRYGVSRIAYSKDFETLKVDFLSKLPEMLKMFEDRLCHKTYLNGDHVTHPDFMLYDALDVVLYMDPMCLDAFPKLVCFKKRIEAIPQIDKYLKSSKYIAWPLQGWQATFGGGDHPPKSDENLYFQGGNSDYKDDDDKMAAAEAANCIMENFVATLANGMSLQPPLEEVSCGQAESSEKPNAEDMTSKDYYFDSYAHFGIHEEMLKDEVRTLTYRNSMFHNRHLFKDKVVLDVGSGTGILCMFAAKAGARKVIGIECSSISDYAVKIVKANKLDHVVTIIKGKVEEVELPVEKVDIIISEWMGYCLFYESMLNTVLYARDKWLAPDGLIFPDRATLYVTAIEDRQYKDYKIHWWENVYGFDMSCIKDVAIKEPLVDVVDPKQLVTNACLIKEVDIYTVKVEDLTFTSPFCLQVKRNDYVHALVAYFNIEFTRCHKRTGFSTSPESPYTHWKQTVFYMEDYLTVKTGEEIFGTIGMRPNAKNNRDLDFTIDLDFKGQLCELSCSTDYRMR

Compound	IC50 [1] [µM]	IC50 [2] [µM]
Cc1cc(F)ccc1-c1n[nH]cc1CN(C)CCN [Compound 152]	< 0.1	0.101 to 1
COc1ccc(-c2n[nH]cc2CN(C)CCN)cc1 [Compound 153]	< 0.1	0.101 to 1
COc1ccc(-c2n[nH]cc2CN(C)CCN)c(C(F)(F)F)c1 [Compound 154]	0.101 to 1	3.01 to 10
COc1ccc(-c2n[nH]cc2CN(C)CCN)c(C)c1 [Compound 155]	< 0.1	0.101 to 1
CN(CCN)Cc1c[nH]nc1-c1cc(Cl)ccc1F [Compound 156]	0.101 to 1	1.01 to 3
COc1ccc(Cl)cc1-c1n[nH]cc1CN(C)CCN [Compound 157]	1.01 to 3	3.01 to 10
Cc1ccc(C#N)cc1-c1n[nH]cc1CN(C)CCN [Compound 158]	1.01 to 3	> 10
Cc1ccc(F)cc1-c1n[nH]cc1CN(C)CCN [Compound 159]	< 0.1	0.101 to 1
COc1ccc(F)cc1-c1n[nH]cc1CN(C)CCN [Compound 160]	0.101 to 1	3.01 to 10
Cc1ccccc1-c1n[nH]cc1CN(C)CCN [Compound 161]	0.101 to 1	1.01 to 3
Cc1ccc(-c2n[nH]cc2CN(C)CCN)cc1 [Compound 162]	< 0.1	0.101 to 1
CCN(C)C(=O)c1ccc(-c2n[nH]cc2CN(C)CCN)cc1 [Compound 163]	0.101 to 1	1.01 to 3
CC(C)CN(C)C(=O)c1ccc(-c2n[nH]cc2CN(C)CCN)cc1 [Compound 164]	0.101 to 1	1.01 to 3
CCOc1ccc(-c2n[nH]cc2CN(C)CCN)cc1 [Compound 166]	< 0.1	0.101 to 1
COCCOc1ccc(-c2n[nH]cc2CN(C)CCN)cc1 [Compound 167]	< 0.1	0.101 to 1
Cc1[nH]nc(-c2ccc(F)cc2)c1CN(C)CCN [Compound 169]	0.101 to 1	1.01 to 3
CC(C)Cc1ccc(-c2c[nH]nc2CN(C)CCN)cc1 [Compound 170]	< 0.1	0.101 to 1
NCCN(CCO)Cc1c[nH]nc1-c1ccc(F)cc1 [Compound 171]	0.101 to 1	1.01 to 3
CN(CCN)Cc1c[nH]nc1-c1ccc(OCCN2CCOCC2)cc1 [Compound 172]	0.101 to 1	3.01 to 10
CN(CCN)Cc1c[nH]nc1-c1ccc2c(c1)NC(=O)CO2 [Compound 173]	0.101 to 1	3.01 to 10
